Reference: patent US20050096254A1, “Peptide deformylase activated prodrugs” (priority 2002, published 2005)
In brackets after ≈: the same amount, converted by molar mass.

Experiments:
Mammalian cells = assay: Toxicity to mammalian cells; type: cell-based; settings: after 16 hours of exposure
Protocol: Mammalian cells were treated with Compound #2 as described above.

K. pneumoniae = assay: MIC susceptibility testing (modified NCCLS); type: cell-based
Protocol: The NCCLS (National Committee for Clinical Laboratory Standards), method to determine MIC's of antimicrobial compounds is modified for high-throughput screening. All stocks of tested compounds are prepared in either water or in DMSO depending on solubility. At the highest concentration, DMSO content should not exceed 0.5%. Briefly, twenty 2-fold serial dilutions of test compounds from the highest concentration is made in a 384-well microtiter plate. Each well is inoculated with testing bacteria in broth to a final concentration of approximately 1-1.5×10^6 cells/ml. Bacterial growth is determined by the increase of optical density at 600 nm using a microplate reader (Tecan SpectraFluor Plus).

CSCC[C@H](NC=O)C(=O)N[C@@H](CC(C)C)C(=O)Oc1cc(Cl)ccc1Oc1ccc(Cl)cc1Cl [Compound #2]
IC50 (Mammalian cells): ~30 µM
MIC (K. pneumoniae; Table 3, K. pneumoniae ATCC 51503, Exp. #1): 8 mg/L (≈ 14.2 µM)
MIC (K. pneumoniae; Table 3, K. pneumoniae ATCC 51503, Exp. #2): 8 mg/L (≈ 14.2 µM)
MIC (K. pneumoniae; Table 3, K. pneumoniae ATCC 51504, Exp. #1): 1 mg/L (≈ 1.78 µM)
MIC (K. pneumoniae; Table 3, K. pneumoniae ATCC 51504, Exp. #2): 2 mg/L (≈ 3.56 µM)
MIC (K. pneumoniae; Table 3, K. pneumoniae ATCC 700721, Exp. #1): 2 mg/L (≈ 3.56 µM)
MIC (K. pneumoniae; Table 3, K. pneumoniae ATCC 700721, Exp. #2): 2 mg/L (≈ 3.56 µM)
MIC (K. pneumoniae; Table 4, K. pneumoniae ATCC 51503, Exp. #1): 4 mg/L (≈ 7.12 µM)
MIC (K. pneumoniae; Table 4, K. pneumoniae ATCC 51503, Exp. #2): 8 mg/L (≈ 14.2 µM)
MIC (K. pneumoniae; Table 4, K. pneumoniae ATCC 700721, Exp. #1): 4 mg/L (≈ 7.12 µM)
MIC (K. pneumoniae; Table 4, K. pneumoniae ATCC 700721, Exp. #2): 8 mg/L (≈ 14.2 µM)
